{"source": "ChEMBL document CHEMBL3508140", "about": "(2016)", "key": {"[1]": {"assay": "Recovery of epirubicinol-glucuronide following intraperitoneal epirubicin at 4 mg.Kg-1 dose in mouse", "format": "ADME, organism-based, CD-1, Plasma", "conditions": "in vivo, ip"}, "[2]": {"assay": "Recovery of epirubicin-glucuronide following intraperitoneal epirubicin at 4 mg.Kg-1 dose in mouse", "format": "ADME, organism-based, CD-1, Plasma", "conditions": "in vivo, ip"}, "[3]": {"assay": "Recovery of epirubicinol-glucuronide following intravenous epirubicin at 4 mg.Kg-1 dose in rat", "format": "ADME, organism-based, SD, Plasma", "conditions": "in vivo"}, "[4]": {"assay": "Recovery of epirubicin-glucuronide following intravenous epirubicin at 4 mg.Kg-1 dose in rat", "format": "ADME, organism-based, SD, Plasma", "conditions": "in vivo"}, "[5]": {"assay": "Recovery of epirubicinol-glucuronide following intraperitoneal epirubicin at 4 mg.Kg-1 dose in hamster", "format": "ADME, organism-based, Cricetulus griseus, Plasma", "conditions": "chinese hamster, in vivo, ip"}, "[6]": {"assay": "Recovery of epirubicin-glucuronide following intraperitoneal epirubicin at 4 mg.Kg-1 dose in hamster", "format": "ADME, organism-based, Cricetulus griseus, Plasma", "conditions": "chinese hamster, in vivo, ip"}, "[7]": {"assay": "Recovery of epirubicinol-glucuronide following intravenous epirubicin at 4 mg.Kg-1 dose in rabbit", "format": "ADME, organism-based, Oryctolagus cuniculus, New Zealand White, Plasma", "conditions": "in vivo"}, "[8]": {"assay": "Recovery of epirubicin-glucuronide following intravenous epirubicin at 4 mg.Kg-1 dose in rabbit", "format": "ADME, organism-based, Oryctolagus cuniculus, New Zealand White, Plasma", "conditions": "in vivo"}, "[9]": {"assay": "Recovery of epirubicinol-glucuronide following intravenous epirubicin at 1.5 mg.Kg-1 dose in man", "format": "ADME, organism-based, Plasma", "conditions": "human, in vivo"}, "[10]": {"assay": "Recovery of epirubicin-glucuronide following intravenous epirubicin at 1.5 mg.Kg-1 dose in man", "format": "ADME, organism-based, Plasma", "conditions": "human, in vivo"}, "[11]": {"assay": "Urinary excretion of epirubicin glucuronide following epirubicin at 60-150 mg.m-2 dose in cancer patients", "format": "ADME, organism-based, Urine", "conditions": "human, in vivo"}, "[12]": {"assay": "Urinary excretion of epirubicinol glucuronide following epirubicin at 60-150 mg.m-2 dose in cancer patients", "format": "ADME, organism-based, Urine", "conditions": "human, in vivo"}, "[13]": {"assay": "(§1) Urinary excretion of epirubicin glucuronide following epirubicin at 50 mg.m-2 dose in cancer patients", "format": "ADME, organism-based, Urine", "conditions": "human, in vivo; at 50 mg/m2"}, "[14]": {"assay": "(§2) Urinary excretion of epirubicinol glucuronide following epirubicin at 50 mg.m-2 dose in cancer patients", "format": "ADME, organism-based, Urine", "conditions": "human, in vivo; at 50 mg/m2"}, "[15]": {"assay": "as §1", "format": "ADME, organism-based, Urine", "conditions": "human, in vivo; at 50 mg/m2", "remark": "listed apart in the source"}, "[16]": {"assay": "as §2", "format": "ADME, organism-based, Urine", "conditions": "human, in vivo; at 50 mg/m2", "remark": "listed apart in the source"}, "[17]": {"assay": "Urinary excretion of epirubicin glucuronide following epirubicin at 60 mg.m-2 dose in cancer patients", "format": "ADME, organism-based, Urine", "conditions": "human, in vivo; at 60 mg/m2"}, "[18]": {"assay": "Urinary excretion of epirubicinol glucuronide following epirubicin at 60 mg.m-2 dose in cancer patients", "format": "ADME, organism-based, Urine", "conditions": "human, in vivo; at 60 mg/m2"}, "[19]": {"assay": "Urinary excretion of epirubicin glucuronide following epirubicin at 75-90 mg.m-2 dose in cancer patients", "format": "ADME, organism-based, Urine", "conditions": "human, in vivo"}, "[20]": {"assay": "Urinary excretion of epirubicinol glucuronide following epirubicin at 75-90 mg.m-2 dose in cancer patients", "format": "ADME, organism-based, Urine", "conditions": "human, in vivo"}, "[21]": {"assay": "Biliary excretion of epirubicin glucuronide following epirubicin at 50 mg.m-2 dose in cancer patients", "format": "ADME, organism-based, Bile", "conditions": "human, in vivo; at 50 mg/m2"}, "[22]": {"assay": "Biliary excretion of epirubicinol glucuronide following epirubicin at 50 mg.m-2 dose in cancer patients", "format": "ADME, organism-based, Bile", "conditions": "human, in vivo; at 50 mg/m2"}, "[23]": {"assay": "(§3) Terminal half-life of epirubicin-glucuronide following intravenous epirubicin at 1 mg.Kg-1 dose in rabbit", "format": "ADME, organism-based, Oryctolagus cuniculus, New Zealand White, Plasma", "conditions": "in vivo"}, "[24]": {"assay": "(§4) Terminal half-life of epirubicin-glucuronide following intravenous epirubicin at 3 mg.Kg-1 dose in rabbit", "format": "ADME, organism-based, Oryctolagus cuniculus, New Zealand White, Plasma", "conditions": "in vivo"}, "[25]": {"assay": "as §3", "format": "ADME, organism-based, Oryctolagus cuniculus, New Zealand White, Plasma", "conditions": "in vivo", "remark": "listed apart in the source"}, "[26]": {"assay": "as §4", "format": "ADME, organism-based, Oryctolagus cuniculus, New Zealand White, Plasma", "conditions": "in vivo", "remark": "listed apart in the source"}, "[27]": {"assay": "AUC(0-2 h) of epirubicin-glucuronide following intravenous epirubicin at 1 mg.Kg-1 dose in rabbit", "format": "ADME, organism-based, Oryctolagus cuniculus, New Zealand White, Plasma", "conditions": "in vivo"}, "[28]": {"assay": "AUC(0-2 h) of epirubicin-glucuronide following intravenous epirubicin at 3 mg.Kg-1 dose in rabbit", "format": "ADME, organism-based, Oryctolagus cuniculus, New Zealand White, Plasma", "conditions": "in vivo"}, "[29]": {"assay": "Terminal half-life of epirubicinol-glucuronide following intravenous epirubicin at 1 mg.Kg-1 dose in rabbit", "format": "ADME, organism-based, Oryctolagus cuniculus, New Zealand White, Plasma", "conditions": "in vivo"}, "[30]": {"assay": "Terminal half-life of epirubicinol-glucuronide following intravenous epirubicin at 3 mg.Kg-1 dose in rabbit", "format": "ADME, organism-based, Oryctolagus cuniculus, New Zealand White, Plasma", "conditions": "in vivo"}, "[31]": {"assay": "AUC(0-2 h) of epirubicinol-glucuronide following intravenous epirubicin at 1 mg.Kg-1 dose in rabbit", "format": "ADME, organism-based, Oryctolagus cuniculus, New Zealand White, Plasma", "conditions": "in vivo"}, "[32]": {"assay": "AUC(0-2 h) of epirubicinol-glucuronide following intravenous epirubicin at 3 mg.Kg-1 dose in rabbit", "format": "ADME, organism-based, Oryctolagus cuniculus, New Zealand White, Plasma", "conditions": "in vivo"}}}
{"smiles": "COc1cccc2c1C(=O)c1c(O)c3c(c(O)c1C2=O)C[C@@](O)(C(=O)CO)C[C@@H]3O[C@H]1C[C@H](N)[C@@H](O[C@@H]2O[C@H](C(=O)O)[C@@H](O)[C@H](O)[C@H]2O)[C@H](C)O1", "values": [{"measurement": "Compound recovery", "setting": "[1]", "value": "0 10^-9M"}, {"measurement": "Compound recovery", "setting": "[2]", "value": "0 10^-9M"}, {"measurement": "Compound recovery", "setting": "[3]", "value": "0 10^-9M"}, {"measurement": "Compound recovery", "setting": "[4]", "value": "0 10^-9M"}, {"measurement": "Compound recovery", "setting": "[5]", "value": "0 10^-9M"}, {"measurement": "Compound recovery", "setting": "[6]", "value": "0 10^-9M"}, {"measurement": "Compound recovery", "setting": "[7]", "value": "0.5 10^-9M"}, {"measurement": "Compound recovery", "setting": "[8]", "value": "1.7 10^-9M"}, {"measurement": "Compound recovery", "setting": "[9]", "value": "90 10^-9M"}, {"measurement": "Compound recovery", "setting": "[10]", "value": "460 10^-9M"}, {"measurement": "Compound recovery", "setting": "[11]", "value": 1.3, "unit": "%"}, {"measurement": "Compound recovery", "setting": "[12]", "value": 0.3, "unit": "%"}, {"measurement": "Compound recovery", "setting": "[13]", "value": 4.6, "unit": "%"}, {"measurement": "Compound recovery", "setting": "[14]", "value": 1.7, "unit": "%"}, {"measurement": "Compound recovery", "setting": "[15]", "value": 3.3, "unit": "%"}, {"measurement": "Compound recovery", "setting": "[16]", "value": 0.4, "unit": "%"}, {"measurement": "Compound recovery", "setting": "[17]", "value": 3.2, "unit": "%"}, {"measurement": "Compound recovery", "setting": "[18]", "value": 0.8, "unit": "%"}, {"measurement": "Compound recovery", "setting": "[19]", "value": 3.2, "unit": "%"}, {"measurement": "Compound recovery", "setting": "[20]", "value": 0.8, "unit": "%"}, {"measurement": "Compound recovery", "setting": "[21]", "value": 4.6, "unit": "%"}, {"measurement": "Compound recovery", "setting": "[22]", "value": 1.9, "unit": "%"}, {"measurement": "t1/2", "setting": "[23]", "value": 9, "unit": "min"}, {"measurement": "t1/2", "setting": "[24]", "value": "OUTCOME = Not calculated"}, {"measurement": "t1/2", "setting": "[25]", "value": 61.2, "unit": "min"}, {"measurement": "t1/2", "setting": "[26]", "value": 29.4, "unit": "min"}, {"measurement": "AUC", "setting": "[27]", "value": 7.64, "unit": "ng·h/mL"}, {"measurement": "AUC", "setting": "[28]", "value": 15.83, "unit": "ng·h/mL"}, {"measurement": "t1/2", "setting": "[29]", "value": 12.6, "unit": "min"}, {"measurement": "t1/2", "setting": "[30]", "value": 23.4, "unit": "min"}, {"measurement": "AUC", "setting": "[31]", "value": 1.47, "unit": "ng·h/mL"}, {"measurement": "AUC", "setting": "[32]", "value": 4.01, "unit": "ng·h/mL"}]}
